Reference: patent publication US20110105324A1, “Herbicidal Compounds Based on N-Azinyl-N-Phenylsulfonylureas” (BAYER CROPSCIENCE AG, priority 2008, published 2011)

Tests used:
Lolium multiflorum = assay: Pre-emergence herbicidal activity, greenhouse pot test; format: in vivo; conditions: 80 g/ha, scored visually after approx. 3 weeks, 100% = plants have died, 0% = like control
Excerpt: (§1) Seeds of monocotyledonous or dicotyledonous weed plants or crop plants are placed in sandy loam in wood fiber pots and covered with soil. The compounds according to the invention, which are formulated as wettable powders (WP), are then applied to the surface of the soil cover in the form of an aqueous suspension or emulsion with a water application rate of 600 l/ha (converted), with addition of 0.2% wetting agent.
(§2) After the treatment, the pots are placed in a greenhouse and maintained under good growth conditions for the test plants. After approximately 3 weeks, the activity of the preparations is scored visually in comparison with untreated controls (herbicidal activity in percent (%): 100% activity=the plants have died, 0% activity=like control plants).

Alopecurus myosuroides [1] = assay: as above; format: in vivo; conditions: 80 g/ha, scored visually after approx. 3 weeks, 100% = plants have died, 0% = like control
Excerpt: as §1, §2

Matricaria inodora [2] = assay: Post-emergence herbicidal activity, greenhouse pot test; format: in vivo; conditions: one-leaf stage, 80 g/ha, scored visually after approx. 3 weeks, 100% = plants have died, 0% = like control
Protocol: (§3) Seeds of monocotyledonous or dicotyledonous weed plants or crop plants are placed in sandy loam in wood fiber pots, covered with soil and grown in a greenhouse under good growth conditions. 2 to 3 weeks after sowing, the test plants are treated in the one-leaf stage. The compounds according to the invention, which are formulated as wettable powders (WP), are then sprayed onto the green plant parts in the form of an aqueous suspension or emulsion with a water application rate of 600 l/ha (converted) with addition of 0.2% of wetting agent. After the test plants have been left to stand in the greenhouse for approximately 3 weeks under optimal growth conditions, the activity of the preparation is scored visually in comparison with untreated controls (herbicidal activity in percent (%): 100% activity=the plants have died, 0% activity=like control plants).

Echinochloa crus-galli = assay: as above; format: in vivo; conditions: one-leaf stage, 80 g/ha, scored visually after approx. 3 weeks, 100% = plants have died, 0% = like control
Protocol: as §3

Cyperus esculentus [3] = assay: as above; format: in vivo; conditions: one-leaf stage, 80 g/ha, scored visually after approx. 3 weeks, 100% = plants have died, 0% = like control
Protocol: as §3

Amaranthus retroflexus = assay: as above; format: in vivo; conditions: one-leaf stage, 80 g/ha, scored visually after approx. 3 weeks, 100% = plants have died, 0% = like control
Protocol: as §3

Alopecurus myosuroides [4] = assay: as above; format: in vivo; conditions: one-leaf stage, 80 g/ha, scored visually after approx. 3 weeks, 100% = plants have died, 0% = like control
Protocol: as §3

Polygonum convolvulus = assay: as above; format: in vivo; conditions: one-leaf stage, 80 g/ha, scored visually after approx. 3 weeks, 100% = plants have died, 0% = like control
Protocol: as §3

Abutilon theophrasti = assay: as above; format: in vivo; conditions: one-leaf stage, 80 g/ha, scored visually after approx. 3 weeks, 100% = plants have died, 0% = like control
Protocol: as §3

Pharbitis purpurea [5] = assay: as above; format: in vivo, Pharbitis (Ipomoea) purpurea; conditions: one-leaf stage, 80 g/ha, scored visually after approx. 3 weeks, 100% = plants have died, 0% = like control
Protocol: as §3

Matricaria inodora [6] = assay: Pre-emergence herbicidal activity, greenhouse pot test; format: in vivo; conditions: 80 g/ha, scored visually after approx. 3 weeks, 100% = plants have died, 0% = like control
Excerpt: as §1, §2

Stellaria media = assay: as above; format: in vivo; conditions: 80 g/ha, scored visually after approx. 3 weeks, 100% = plants have died, 0% = like control
Excerpt: as §1, §2

Cyperus esculentus [7] = assay: as above; format: in vivo; conditions: 80 g/ha, scored visually after approx. 3 weeks, 100% = plants have died, 0% = like control
Excerpt: as §1, §2

Veronica persica = assay: as above; format: in vivo; conditions: 80 g/ha, scored visually after approx. 3 weeks, 100% = plants have died, 0% = like control
Excerpt: as §1, §2

Viola tricolor [8] = assay: as above; format: in vivo; conditions: 80 g/ha, scored visually after approx. 3 weeks, 100% = plants have died, 0% = like control
Excerpt: as §1, §2

Pharbitis purpurea [9] = assay: as above; format: in vivo, Pharbitis/Ipomoea purpurea; conditions: 80 g/ha, scored visually after approx. 3 weeks, 100% = plants have died, 0% = like control
Excerpt: as §1, §2

Viola tricolor [10] = assay: Post-emergence herbicidal activity, greenhouse pot test; format: in vivo; conditions: one-leaf stage, 80 g/ha, scored visually after approx. 3 weeks, 100% = plants have died, 0% = like control
Protocol: as §3

| SMILES | herbicidal activity LOLMU (Lolium multiflorum) [%] | herbicidal activity ALOMY (Alopecurus myosuroides [1]) [%] | herbicidal activity MATIN (Matricaria inodora [2]) [%] | herbicidal activity ECHCG (Echinochloa crus-galli) [%] | herbicidal activity CYPES (Cyperus esculentus [3]) [%] | herbicidal activity AMARE (Amaranthus retroflexus) [%] | herbicidal activity ALOMY (Alopecurus myosuroides [4]) [%] | herbicidal activity POLCO (Polygonum convolvulus) [%] | herbicidal activity ABUTH (Abutilon theophrasti) [%] | herbicidal activity PHBPU (Pharbitis purpurea [5]) [%] | herbicidal activity MATIN (Matricaria inodora [6]) [%] | herbicidal activity STEME (Stellaria media) [%] | herbicidal activity CYPES (Cyperus esculentus [7]) [%] | herbicidal activity VERPE (Veronica persica) [%] | herbicidal activity VIOTR (Viola tricolor [8]) [%] | herbicidal activity PHBPU (Pharbitis purpurea [9]) [%] | herbicidal activity VIOTR (Viola tricolor [10]) [%] |
| --- | --- | --- | --- | --- | --- | --- | --- | --- | --- | --- | --- | --- | --- | --- | --- | --- | --- |
| Cc1cc(C)nc(NC(=O)NS(=O)(=O)c2ccccc2OC(C)C(F)(F)F)n1 (stereo not shown) [Compound I-1, N-[(4,6-Dimethylpyrimidin-2-yl)carbamoyl]-2-(2,2,2-trifluoro-1-methylethoxy)-benzenesulfonamide] | 80 | 80 | 80 | 80 | 80 | 80 | 90 | 90 | 90 |  |  |  |  |  |  |  |  |
| COc1cc(C)nc(NC(=O)NS(=O)(=O)c2ccccc2OC(C)C(F)(F)F)n1 (stereo not shown) [Compound I-2] | 90 | 90 | 80 | 80 | 80 |  | 90 | 90 | 90 | 80 | 80 | 80 | 100 | 80 | 80 | 80 | 90 |
| COc1cc(Cl)nc(NC(=O)NS(=O)(=O)c2ccccc2OC(C)C(F)(F)F)n1 (stereo not shown) [Compound I-3] | 80 | 80 | 90 |  | 80 |  | 80 | 80 | 90 | 90 | 80 |  | 100 | 80 |  | 80 | 80 |
| COc1cc(OC)nc(NC(=O)NS(=O)(=O)c2ccccc2OC(C)C(F)(F)F)n1 (stereo not shown) [Compound I-4] | 80 | 80 | 90 | 80 | 80 |  | 90 | 80 | 100 | 80 | 80 |  | 90 | 80 | 80 | 80 | 90 |
| COc1nc(C)nc(NC(=O)NS(=O)(=O)c2ccccc2OC(C)C(F)(F)F)n1 (stereo not shown) [Compound I-5, N-[(4-Methoxy-6-methyl-1,3,5-triazin-2-yl)carbamoyl]-2-(2,2,2-trifluoro-1-methylethoxy)benzenesulfonamide] |  | 90 | 90 |  |  | 100 | 90 | 90 | 90 | 90 | 80 | 80 |  | 90 | 80 | 80 | 90 |
| COc1nc(NC(=O)NS(=O)(=O)c2ccccc2OC(C)C(F)(F)F)nc(OC)n1 (stereo not shown) [Compound I-6] |  | 80 | 90 |  |  | 80 |  | 90 | 90 | 90 | 80 | 80 | 100 | 80 | 80 | 80 | 90 |
